As a reminder, the inhibition is the drop in the measured response relative to a control, in per cent.

The text below walks through data of publication PMC6934184, “Selective DNA-PKcs inhibition extends the therapeutic index of localized radiotherapy and chemotherapy” (The Journal of Clinical Investigation, 2019).

The target in the experiment is T1, CHUK (IKK alpha) (Homo sapiens, UniProt O15111).
T1 construct: purchased Thermo Fisher Scientific (Life Technologies) SelectScreen
As to the kind of experiment: SelectScreen Adapta. The format is biochemical. Put shortly:
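Compound tested in SelectScreen activity assays, Z'LYTE for CSF1R, CDK1/cyclin B and MAP2K6 and Adapta for CAMK1. ATP for CAMK1 was listed as 10, and Km app was used for CSF1R. Results are expressed in percent.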

T1 sequence (O15111 whole entry): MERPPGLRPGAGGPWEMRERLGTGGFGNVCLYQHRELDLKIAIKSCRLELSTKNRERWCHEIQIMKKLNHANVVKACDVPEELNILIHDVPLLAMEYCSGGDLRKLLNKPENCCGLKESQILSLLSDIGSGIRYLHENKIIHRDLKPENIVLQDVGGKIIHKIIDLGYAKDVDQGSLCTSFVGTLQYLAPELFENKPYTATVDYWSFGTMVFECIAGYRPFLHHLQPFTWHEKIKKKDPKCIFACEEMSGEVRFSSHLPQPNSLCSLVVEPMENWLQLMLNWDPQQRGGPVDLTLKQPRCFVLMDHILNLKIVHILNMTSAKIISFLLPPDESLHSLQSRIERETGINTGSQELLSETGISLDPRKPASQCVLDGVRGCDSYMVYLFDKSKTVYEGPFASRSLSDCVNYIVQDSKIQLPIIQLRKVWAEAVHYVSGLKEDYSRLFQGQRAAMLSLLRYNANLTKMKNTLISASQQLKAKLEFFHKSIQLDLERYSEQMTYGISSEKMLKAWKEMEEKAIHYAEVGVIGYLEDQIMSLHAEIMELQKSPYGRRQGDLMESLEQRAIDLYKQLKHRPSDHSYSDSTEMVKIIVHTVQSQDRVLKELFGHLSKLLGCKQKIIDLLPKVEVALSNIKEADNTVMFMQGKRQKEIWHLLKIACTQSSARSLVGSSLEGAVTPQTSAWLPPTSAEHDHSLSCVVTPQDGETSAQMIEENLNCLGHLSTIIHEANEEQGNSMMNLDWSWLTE

In the case of `CN(C(=O)CN1CCOCC1)c1ccc2sc3c(-c4cccc5c(=O)cc(N6CC7CCC(C6)O7)oc45)cccc3c2c1` [NU5455], the inhibition at 1 µM was -4.2%.
